We go through two compounds from ChEMBL document CHEMBL4622903, “Repurposing of antipsychotics perphenazine for the treatment of endometrial cancer” (Bioorg Med Chem Lett, 2020).

Calls of active or inactive are those of the source. No cut-off for these calls is given here.

Series [1] relates to Ishikawa. Kind of series: Antiproliferative activity against human Ishikawa cells assessed as inhibition of cell viability by CCK8 assay. It is filed as functional, cell-based.
In series [2] the test system is KLE. Kind of series: Antiproliferative activity against human KLE cells assessed as inhibition of cell viability by CCK8 assay. Type of series: functional, cell-based. In general terms: Formazan colour is commonly taken as a measure of viable cells.
In series [3] the test system is HEC-1-A. Kind of series: Antiproliferative activity against human Hec1A cells assessed as inhibition of cell viability by CCK8 assay. Type of series: functional, cell-based.
The subject of series [4] is HEC-1B cell line. Kind of series: Antiproliferative activity against human HEC1B cells assessed as inhibition of cell viability by CCK8 assay. Type of series: functional, cell-based.
Series [5] relates to AN3-CA. Kind of series: Antiproliferative activity against human AN3CA cells assessed as inhibition of cell viability by CCK8 assay. It is filed as functional, cell-based.
In series [6] the test system is Ishikawa. Kind of series: Inhibition of colony formation in progesterone sensitive human Ishikawa cells at 20 to 30 uM. It is filed as functional, cell-based.
Series [7] relates to Ishikawa. Kind of series: Antimigratory activity against progesterone sensitive human Ishikawa cells assessed as inhibition of cell migration at 10 uM after 48 hrs by transwell assay. It is filed as functional, cell-based.
Series [8] deals with KLE. Kind of series: Antimigratory activity against progesterone-resistant human KLE cells assessed as reduction in cell migration at 10 uM after 48 hrs by transwell assay. It is filed as functional, cell-based.
For series [9], the system named is Ishikawa. Kind of series: Antitumor activity against human Ishikawa cells xenografted in mouse assessed as tumor growth inhibition at 30 mg/kg measured after 28 days relative to control. The note with it: 672 h, read-out: GI. It is filed as functional. A general note: A xenograft is tissue or cells of one species grown in another, often human tumour cells in immunodeficient mice.

Series [10] concerns Ishikawa. Kind of series: Potency index, ratio of medroxyprogesterone acetate IC50 to test compound IC50 for antiproliferative activity against human Ishikawa cells assessed as inhibition of cell viability by CCK8 assay. It is filed as functional.
Series [11] relates to KLE. Kind of series: Potency index, ratio of medroxyprogesterone acetate IC50 to test compound IC50 for antiproliferative activity against human KLE cells assessed as inhibition of cell viability by CCK8 assay. It is filed as functional.
Series [12] has as its system HEC-1-A. Kind of series: Potency index, ratio of medroxyprogesterone acetate IC50 to test compound IC50 for antiproliferative activity against human Hec1A cells assessed as inhibition of cell viability by CCK8 assay. Type of series: functional.
The subject of series [13] is HEC-1B cell line. Kind of series: Potency index, ratio of medroxyprogesterone acetate IC50 to test compound IC50 for antiproliferative activity against human HEC1B cells assessed as inhibition of cell viability by CCK8 assay. It is filed as functional.
For series [14], the system named is AN3-CA. Kind of series: Potency index, ratio of medroxyprogesterone acetate IC50 to test compound IC50 for antiproliferative activity against human AN3CA cells assessed as inhibition of cell viability by CCK8 assay. It is filed as functional.
Series [15] relates to Ishikawa. Kind of series: Inhibition of colony formation in progesterone sensitive human Ishikawa cells. Type of series: functional, cell-based.
Series [16] concerns KLE. Kind of series: Inhibition of colony formation in progesterone resistant human KLE cells. It is filed as functional, cell-based.
Series [17] relates to Ishikawa. Kind of series: Induction of apoptosis in progesterone-sensitive human Ishikawa cells assessed as early apoptotic cells at 10 uM after 48 hrs by Annexin-V/PI staining based flow cytometry (reference value: 1.92%). It is filed as functional. In general terms: A flow cytometer gives signals particle by particle.
Series [18] relates to Ishikawa. Kind of series: Induction of apoptosis in progesterone-sensitive human Ishikawa cells assessed as late apoptotic cells at 10 uM after 48 hrs by Annexin-V/PI staining based flow cytometry (reference value: 3.56%). It is filed as functional.
The test system of series [19] is Ishikawa. Kind of series: Induction of apoptosis in progesterone-sensitive human Ishikawa cells assessed as necrotic cells at 10 uM after 48 hrs by Annexin-V/PI staining based flow cytometry (reference value: 1.21%). Type of series: functional.
Series [20] concerns Ishikawa. Kind of series: Induction of apoptosis in progesterone-sensitive human Ishikawa cells assessed as early apoptotic cells at 20 uM after 48 hrs by Annexin-V/PI staining based flow cytometry (reference value: 1.92%). Type of series: functional.
The test system of series [21] is Ishikawa. Kind of series: Induction of apoptosis in progesterone-sensitive human Ishikawa cells assessed as late apoptotic cells at 20 uM after 48 hrs by Annexin-V/PI staining based flow cytometry (reference value: 3.56%). Type of series: functional.
Series [22] relates to Ishikawa. Kind of series: Induction of apoptosis in progesterone-sensitive human Ishikawa cells assessed as necrotic cells at 20 uM after 48 hrs by Annexin-V/PI staining based flow cytometry (reference value: 1.21%). Type of series: functional.
The subject of series [23] is KLE. Kind of series: Induction of apoptosis in progesterone-resistant human KLE cells assessed as early apoptotic cells at 10 uM after 48 hrs by Annexin-V/PI staining based flow cytometry (reference value: 2.85%). Type of series: functional.
The subject of series [24] is KLE. Kind of series: Induction of apoptosis in progesterone-resistant human KLE cells assessed as late apoptotic cells at 10 uM after 48 hrs by Annexin-V/PI staining based flow cytometry (reference value: 3.56%). Type of series: functional.
The subject of series [25] is KLE. Kind of series: Induction of apoptosis in progesterone-resistant human KLE cells assessed as necrotic cells at 10 uM after 48 hrs by Annexin-V/PI staining based flow cytometry (reference value: 1.30%). It is filed as functional.
Series [26] deals with KLE. Kind of series: Induction of apoptosis in progesterone-resistant human KLE cells assessed as early apoptotic cells at 20 uM after 48 hrs by Annexin-V/PI staining based flow cytometry (reference value: 2.85%). It is filed as functional.
The subject of series [27] is KLE. Kind of series: Induction of apoptosis in progesterone-resistant human KLE cells assessed as late apoptotic cells at 20 uM after 48 hrs by Annexin-V/PI staining based flow cytometry (reference value: 3.56%). It is filed as functional.
The test system of series [28] is KLE. Kind of series: Induction of apoptosis in progesterone-resistant human KLE cells assessed as necrotic cells at 20 uM after 48 hrs by Annexin-V/PI staining based flow cytometry (reference value: 1.30%). Type of series: functional.
The subject of series [29] is Ishikawa. Kind of series: Induction of apoptosis in progesterone-sensitive human Ishikawa cells after 48 hrs by Annexin-V/PI staining based flow cytometry. Type of series: functional, cell-based.
Series [30] relates to KLE. Kind of series: Induction of apoptosis in progesterone-resistant human KLE cells after 48 hrs by Annexin-V/PI staining based flow cytometry. It is filed as functional, cell-based.
For series [31], the target named is RAC-alpha serine/threonine-protein kinase (Homo sapiens) (UniProt P31749). Kind of series: Inhibition of AKT phosphorylation at ser 473 residue in human Ishikawa cells at 20 uM after 48 hrs by Western blot analysis. It is filed as cell-based.
The target is the same in series [32]. Kind of series: Inhibition of AKT phosphorylation at ser 473 residue in human KLE cells at 20 uM after 48 hrs by Western blot analysis. Type of series: cell-based.
Series [33] deals with Ishikawa. Kind of series: Antitumor activity against human Ishikawa cells xenografted in mouse assessed as tumor growth inhibition at 3 mg/kg measured after 28 days relative to control. It is filed as functional. The note with it: 672 h, read-out: GI.
In series [34] the test system is Ishikawa. Kind of series: Antitumor activity against human Ishikawa cells xenografted in mouse assessed as tumor growth inhibition at 15 mg/kg measured after 28 days relative to control. It is filed as functional. The note with it: 672 h, read-out: GI.
Series [35] can be described thus: Toxicity in mouse xenografted with human Ishikawa cells assessed as effect on body weight at 3 to 15 mg/kg after 28 days. It is filed as organism-based. The note with it: in vivo, 672 h.

Sequence of RAC-alpha serine/threonine-protein kinase (Homo sapiens) (P31749 whole entry): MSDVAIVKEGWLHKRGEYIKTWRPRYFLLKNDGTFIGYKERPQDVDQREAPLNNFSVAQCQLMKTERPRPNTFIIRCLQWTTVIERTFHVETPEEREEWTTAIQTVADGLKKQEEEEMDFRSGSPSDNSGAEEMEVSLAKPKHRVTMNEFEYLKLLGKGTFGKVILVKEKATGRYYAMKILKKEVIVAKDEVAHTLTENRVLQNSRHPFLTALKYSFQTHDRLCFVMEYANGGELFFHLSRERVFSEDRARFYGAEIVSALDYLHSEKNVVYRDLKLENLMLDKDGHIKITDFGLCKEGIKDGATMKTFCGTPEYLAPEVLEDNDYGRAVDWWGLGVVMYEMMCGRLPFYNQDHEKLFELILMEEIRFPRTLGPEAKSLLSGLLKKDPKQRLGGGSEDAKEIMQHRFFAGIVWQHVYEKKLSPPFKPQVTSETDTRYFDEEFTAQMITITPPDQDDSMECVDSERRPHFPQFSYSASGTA

The IC50 is the concentration that gives 50% inhibition. With `CC(=O)O[C@]1(C(C)=O)CC[C@H]2[C@@H]3C[C@H](C)C4=CC(=O)CC[C@]4(C)[C@H]3CC[C@@]21C` [MEDROXYPROGESTERONE ACETATE], the IC50 with Ishikawa [1] was 37 µM; with KLE [2], more than 80 µM; in the series on HEC-1-A [3], 51.8 µM; in the series with HEC-1B cell line [4], 60.4 µM; with AN3-CA [5], 37.1 µM. In addition, the inhibition entry with Ishikawa [6] and in the series with Ishikawa [7] was “Active” each time. Further, the outcome in the series on KLE [8] was inactive. In the series with Ishikawa [9], the inhibition in vivo at 30 mg/kg amounted to 22.6%.
Turning to `OCCN1CCN(CCCN2c3ccccc3Sc3ccc(Cl)cc32)CC1` [PERPHENAZINE], the IC50 turned out to be 19.4 µM with Ishikawa [1]; 30.8 µM in the series on KLE [2]; 23.3 µM in the series on HEC-1-A [3]; 29.8 µM in the series on HEC-1B cell line [4]; 25.4 µM with AN3-CA [5]. Further, the “Ratio IC50” value is reported as 1.9 in the series with Ishikawa [10]; more than 2.6 in the series on KLE [11]; 2.2 with HEC-1-A [12]; 2 in the series on HEC-1B cell line [13]; 1.5 with AN3-CA [14]. Further, the inhibition entry in the series with Ishikawa [15] and in the series on KLE [16] was “Dose-dependent effect” throughout. The inhibition result (with Ishikawa [7]; in series [31]; in series [32]) was “Active” each time. Also, in the series with KLE [8], the result was Active. The Activity in the series on Ishikawa [17] is given as 6.9%; in the series on Ishikawa [18] it was 7.4%; in the series on Ishikawa [19], 2.64%; with Ishikawa [20], 6.76%; in the series on Ishikawa [21] it was 12.52%; with Ishikawa [22], 2.68%. The Activity in the series on KLE [23] came out at 4.33%; in the series on KLE [24], 7.88%; in the series with KLE [25], 5.45%; in the series with KLE [26] it was 6.07%; in the series with KLE [27], 11.41%; in the series on KLE [28], 2.68%. Moreover, the Activity result in the series with Ishikawa [29] is “Dose-dependent effect”; in the series on KLE [30], “Dose-dependent effect”; in [35], “Non-Toxic”. In the series on Ishikawa [33], the inhibition in vivo at 3 mg/kg came out at 58.1%. The inhibition in vivo at 15 mg/kg in the series with Ishikawa [34] came out at 79.9%.
